Activity calls are given as the source filed them.
What was measured:
cells [1] = format: functional, cell-based
cells [2] = format: functional, cell-based; remark: listed apart in the source
Leucine aminopeptidase = molecular target: T1, Leucine aminopeptidase (Plasmodium falciparum 3D7, UniProt Q8IL11); assay: P. falciparum M17LAP inhibitors, primary screen, biochemical, fluorogenic H-Leu-NHMec substrate, 1536-well (AID 1619); format: functional
T1 sequence (Q8IL11 whole entry): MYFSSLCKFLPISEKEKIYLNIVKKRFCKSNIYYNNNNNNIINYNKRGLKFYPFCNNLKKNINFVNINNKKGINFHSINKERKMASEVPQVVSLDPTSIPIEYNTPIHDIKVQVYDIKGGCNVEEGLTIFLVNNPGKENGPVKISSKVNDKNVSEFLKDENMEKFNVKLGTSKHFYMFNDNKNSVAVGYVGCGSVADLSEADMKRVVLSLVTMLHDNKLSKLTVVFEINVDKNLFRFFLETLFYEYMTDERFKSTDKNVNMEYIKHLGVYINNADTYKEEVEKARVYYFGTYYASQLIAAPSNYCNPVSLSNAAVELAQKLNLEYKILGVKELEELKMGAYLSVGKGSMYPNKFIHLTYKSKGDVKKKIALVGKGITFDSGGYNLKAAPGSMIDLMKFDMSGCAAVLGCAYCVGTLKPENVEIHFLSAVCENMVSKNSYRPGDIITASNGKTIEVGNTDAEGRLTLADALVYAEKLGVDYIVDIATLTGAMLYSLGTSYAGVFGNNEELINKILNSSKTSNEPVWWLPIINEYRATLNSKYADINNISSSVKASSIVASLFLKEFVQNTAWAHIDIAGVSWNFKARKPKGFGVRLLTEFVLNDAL

Cytochrome P450 1A2 = molecular target: T2, Cytochrome P450 1A2 (Homo sapiens, UniProt P05177);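 note: PubChem cytochrome P450 panel assay, CYP1A2 panel member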
T2 sequence (P05177 whole entry): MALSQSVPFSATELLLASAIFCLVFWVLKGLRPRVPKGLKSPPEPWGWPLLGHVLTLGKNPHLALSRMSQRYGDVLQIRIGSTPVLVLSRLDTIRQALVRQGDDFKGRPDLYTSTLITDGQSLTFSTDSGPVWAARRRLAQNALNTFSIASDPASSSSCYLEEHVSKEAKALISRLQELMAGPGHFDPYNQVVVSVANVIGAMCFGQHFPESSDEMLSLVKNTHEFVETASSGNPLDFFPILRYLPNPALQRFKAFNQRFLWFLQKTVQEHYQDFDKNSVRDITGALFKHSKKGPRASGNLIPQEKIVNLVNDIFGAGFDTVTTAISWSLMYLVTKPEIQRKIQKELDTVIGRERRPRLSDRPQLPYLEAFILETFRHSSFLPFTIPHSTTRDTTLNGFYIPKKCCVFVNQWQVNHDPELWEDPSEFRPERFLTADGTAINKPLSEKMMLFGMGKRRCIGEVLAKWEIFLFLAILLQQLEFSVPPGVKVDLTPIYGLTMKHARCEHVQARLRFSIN

Cytochrome P450 2C9 = Cytochrome P450 2C9 (Homo sapiens, UniProt P11712)
Cytochrome P450 2C9, sequence (P11712 whole entry): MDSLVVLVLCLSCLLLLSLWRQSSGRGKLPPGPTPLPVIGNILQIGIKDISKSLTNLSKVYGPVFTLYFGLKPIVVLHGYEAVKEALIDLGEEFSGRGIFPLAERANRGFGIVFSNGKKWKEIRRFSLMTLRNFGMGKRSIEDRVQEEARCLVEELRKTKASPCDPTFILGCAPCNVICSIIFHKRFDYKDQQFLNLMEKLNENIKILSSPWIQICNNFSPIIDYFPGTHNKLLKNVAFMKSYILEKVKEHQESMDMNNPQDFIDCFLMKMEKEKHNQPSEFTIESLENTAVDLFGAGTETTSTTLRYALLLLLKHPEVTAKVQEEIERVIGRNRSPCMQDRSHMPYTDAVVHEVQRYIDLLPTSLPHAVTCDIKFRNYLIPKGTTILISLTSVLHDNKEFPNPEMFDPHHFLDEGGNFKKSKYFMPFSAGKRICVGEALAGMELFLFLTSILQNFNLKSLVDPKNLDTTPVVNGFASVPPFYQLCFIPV

Cytochrome P450 2C19 = Cytochrome P450 2C19 (Homo sapiens, UniProt P33261); assay: Cytochrome panel assay with activity outcomes. Panel member name: p450-cyp2c19 Compounds with AC50 equal or less than 10 uM are considered active; format: functional
Cytochrome P450 2C19, sequence (P33261 whole entry): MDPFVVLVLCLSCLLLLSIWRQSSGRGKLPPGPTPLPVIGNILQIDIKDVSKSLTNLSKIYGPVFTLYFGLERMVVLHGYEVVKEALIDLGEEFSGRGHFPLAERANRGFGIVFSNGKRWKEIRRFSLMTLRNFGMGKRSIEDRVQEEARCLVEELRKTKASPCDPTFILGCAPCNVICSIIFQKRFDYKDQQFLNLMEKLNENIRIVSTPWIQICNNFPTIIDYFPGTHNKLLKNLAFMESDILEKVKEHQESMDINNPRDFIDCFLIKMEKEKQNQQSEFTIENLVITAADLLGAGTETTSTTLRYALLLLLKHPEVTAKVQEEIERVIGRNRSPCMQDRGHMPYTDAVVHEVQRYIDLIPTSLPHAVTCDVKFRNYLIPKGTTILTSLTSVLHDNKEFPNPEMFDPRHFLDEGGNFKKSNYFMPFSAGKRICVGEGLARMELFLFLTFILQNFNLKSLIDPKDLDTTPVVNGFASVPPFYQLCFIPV

[3] = viability of uninfected HEp-2 cells – cell-based, HTS, cytotoxicity control for RSV inhibitor project, dose response (AID 2410); format: functional; settings: human respiratory syncytial virus
Fatty acid synthase = Fatty acid synthase (Homo sapiens, UniProt P49327); assay: inhibition of human FAS-TE enzyme activity – biochemical, kinetic fluorescence intensity, dose response (AID 624326); format: functional;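 note: rate of fluorescence rise from hydrolysis of a fluorogenic O-methyl fluorescein ester substrate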
Streptococcus = assay: GAS UMAA2166 growth inhibition – luminescence, BacTiterGlo, counter-screen for streptokinase expression inhibitor project, dose response (AID 1915); format: functional, organism-based;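 note: potency for reduction of bacterial viability or growth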
[4] = molecular target: Luciferin 4-monooxygenase (Photinus pyralis, UniProt P08659); assay: inhibition of purified Photinus pyralis luciferase – biochemical, luminescence, dose response (AID 1891)
Luciferin 4-monooxygenase, sequence (P08659 whole entry): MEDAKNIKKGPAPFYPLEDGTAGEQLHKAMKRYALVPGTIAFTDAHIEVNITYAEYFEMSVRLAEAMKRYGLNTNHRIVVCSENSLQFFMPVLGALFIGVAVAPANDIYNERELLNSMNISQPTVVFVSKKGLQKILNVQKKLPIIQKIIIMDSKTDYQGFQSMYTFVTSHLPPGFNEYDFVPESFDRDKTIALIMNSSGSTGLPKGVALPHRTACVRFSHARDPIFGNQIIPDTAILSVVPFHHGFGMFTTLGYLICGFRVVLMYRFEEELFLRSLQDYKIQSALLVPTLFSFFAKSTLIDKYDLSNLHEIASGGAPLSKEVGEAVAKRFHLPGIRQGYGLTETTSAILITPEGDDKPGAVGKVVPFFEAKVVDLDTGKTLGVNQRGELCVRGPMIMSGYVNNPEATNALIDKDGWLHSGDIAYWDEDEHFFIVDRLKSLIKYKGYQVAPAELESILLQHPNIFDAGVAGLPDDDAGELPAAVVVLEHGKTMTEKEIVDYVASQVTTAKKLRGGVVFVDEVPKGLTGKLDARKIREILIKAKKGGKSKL

Streptokinase A = molecular target: T3, Streptokinase A (Streptococcus pyogenes serotype M1, UniProt P10520); assay: viability-normalized secreted streptokinase activity reduction – plasminogen activation absorbance, OD405, dose response (AID 1914); format: functional, Streptococcus pyogenes M1 GAS;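 note: secreted streptokinase activity via plasminogen activation per viability signal from cell pellet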
T3 sequence (P10520 whole entry): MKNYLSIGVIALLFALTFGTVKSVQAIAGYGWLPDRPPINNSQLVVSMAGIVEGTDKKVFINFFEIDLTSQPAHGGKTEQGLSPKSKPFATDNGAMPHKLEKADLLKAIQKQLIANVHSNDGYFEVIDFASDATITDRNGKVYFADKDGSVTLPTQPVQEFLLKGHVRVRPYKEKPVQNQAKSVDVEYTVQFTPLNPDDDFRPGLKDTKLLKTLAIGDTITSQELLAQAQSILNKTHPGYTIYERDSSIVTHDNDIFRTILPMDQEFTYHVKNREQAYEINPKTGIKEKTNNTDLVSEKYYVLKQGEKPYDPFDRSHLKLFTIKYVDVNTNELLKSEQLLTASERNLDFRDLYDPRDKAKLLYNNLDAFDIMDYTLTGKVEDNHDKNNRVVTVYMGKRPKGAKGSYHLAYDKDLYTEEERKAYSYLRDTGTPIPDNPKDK

[5] = Luminescence Cell-Based Dose Confirmation HTS to Identify Inhibitors of Platelet Dense Granule Release. [Related pubchem assays: 1663 (Primary HTS), 1678 (Summary of Project)]; format: functional
[6] = system: Streptococcus sp. 'group A'; assay: Streptococcus pyogenes SK(-)GAS viability under kanamycin – luminescence, BacTiterGlo, confirmation, counter-screen for streptokinase expression inhibitor project, dose response (AID 1900); format: functional, organism-based
[7] = Luminescence Cell-Based Dose Response HTS to Identify Activators of Luciferase Translation or Activity in H4 […] Cells. [Related pubchem assays: 1829 (Project Summary), 1814 (Primary HTS)]; format: functional
H4 = assay: Luminescence Cell-Based Dose Response HTS to Identify Activators of 5'UTR Stem-Loop Driven Prion Protein mRNA Translation in H4 Neuroglioblastoma Cells. [Related pubchem assays: 1829 (Project Summary), 1814 (Primary HTS)]; format: functional; settings: Homo sapiens
[8] = Luminescence Cell-Based Dose Confirmation HTS to Identify Activators of 5'UTR Stem-Loop Driven Alpha-Synuclein mRNA Translation in H4 Neuroglioblastoma Cells. [Related pubchem assays: 1829 (Project Summary), 1814 (Primary HTS)]; format: functional
Cytochrome P450 3A4 = Cytochrome P450 3A4 (Homo sapiens, UniProt P08684);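 note: CYP3A4 tested as one member of a cytochrome P450 panel screen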
Cytochrome P450 3A4, sequence (P08684 whole entry): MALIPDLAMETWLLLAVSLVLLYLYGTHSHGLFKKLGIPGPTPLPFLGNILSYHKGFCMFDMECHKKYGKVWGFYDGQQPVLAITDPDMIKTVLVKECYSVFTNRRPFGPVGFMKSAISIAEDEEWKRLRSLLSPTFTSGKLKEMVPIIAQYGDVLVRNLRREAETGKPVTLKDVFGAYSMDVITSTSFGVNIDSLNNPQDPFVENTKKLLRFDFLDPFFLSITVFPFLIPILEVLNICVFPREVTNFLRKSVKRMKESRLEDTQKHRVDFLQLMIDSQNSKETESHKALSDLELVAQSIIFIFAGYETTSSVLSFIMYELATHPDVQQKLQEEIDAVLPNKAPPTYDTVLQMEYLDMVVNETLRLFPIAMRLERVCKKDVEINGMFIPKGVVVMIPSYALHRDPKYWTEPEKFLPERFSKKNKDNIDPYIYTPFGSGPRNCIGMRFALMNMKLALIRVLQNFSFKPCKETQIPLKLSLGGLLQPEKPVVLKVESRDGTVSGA

[9] = reduction of Shn3 3'UTR-driven luciferase in osteoblasts – cell-based, Clone20 osteoblasts, firefly luciferase, cherry-picked, dose response (AID 624132); format: functional;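 note: firefly luciferase luminescence from reporter carrying the Shn3 3'UTR in osteoblasts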
[10] = non-specific 3'UTR reporter inhibition in Clone20-Shn3RL – cell-based, Renilla luciferase, cherry-picked, counter-screen for Shn3 inhibitor project, dose response (AID 624133); format: functional
Paired box protein Pax-8 = Paired box protein Pax-8 (Homo sapiens, UniProt Q06710); assay: PAX8 transcriptional activity inhibition in RMG-I – RMG-I cells, luciferase, cherry-pick, dose response (AID 687027); format: functional, cell-based;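 note: luciferase reporter driven by Pax8 target thyroperoxidase promoter measured by SteadyGlo luminescence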
Paired box protein Pax-8, sequence (Q06710 whole entry): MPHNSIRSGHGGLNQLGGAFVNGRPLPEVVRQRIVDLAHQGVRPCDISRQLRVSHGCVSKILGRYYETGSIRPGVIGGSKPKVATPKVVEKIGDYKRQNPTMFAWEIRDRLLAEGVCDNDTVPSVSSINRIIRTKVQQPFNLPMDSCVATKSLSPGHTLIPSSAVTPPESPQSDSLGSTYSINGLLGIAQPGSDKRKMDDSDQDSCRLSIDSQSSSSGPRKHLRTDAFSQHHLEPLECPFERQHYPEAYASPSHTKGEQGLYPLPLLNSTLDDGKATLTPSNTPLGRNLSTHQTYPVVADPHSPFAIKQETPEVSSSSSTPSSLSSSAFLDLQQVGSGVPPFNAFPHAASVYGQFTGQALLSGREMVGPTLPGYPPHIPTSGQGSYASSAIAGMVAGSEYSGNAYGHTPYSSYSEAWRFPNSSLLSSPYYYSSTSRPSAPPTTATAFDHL

[11] = Luminescence Cell-Based Dose Retest to Confirm Inhibitors of Cancer Stem Cells. [Related pubchem assays (depositor defined):AID2717, AID2721]; format: functional; settings: Homo sapiens
INS1 = assay: INS-1E survival protection against cytokine death – cell-based, luminescence, retest, dose response (AID 449756); format: functional; settings: Rattus norvegicus;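 note: cell death triggered by IL-1 beta plus TNF-alpha plus IFN-gamma mixture; protective hits raise ATP signal compared with cytokine alone wells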
[12] = molecular target: Glyceraldehyde-3-phosphate dehydrogenase (Homo sapiens, UniProt P04406)
Glyceraldehyde-3-phosphate dehydrogenase, sequence (P04406 whole entry): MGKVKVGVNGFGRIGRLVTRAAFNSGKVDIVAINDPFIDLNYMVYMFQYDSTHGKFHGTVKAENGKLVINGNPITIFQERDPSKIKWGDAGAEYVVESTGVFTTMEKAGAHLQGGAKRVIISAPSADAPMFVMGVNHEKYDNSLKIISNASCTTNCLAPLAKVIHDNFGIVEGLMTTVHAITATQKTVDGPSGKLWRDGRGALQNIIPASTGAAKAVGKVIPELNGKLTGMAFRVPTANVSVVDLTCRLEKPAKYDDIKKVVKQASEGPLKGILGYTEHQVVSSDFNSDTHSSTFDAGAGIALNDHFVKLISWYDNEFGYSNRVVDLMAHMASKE

S=C(Nc1ccc2c[nH]nc2c1)Nc1ccccc1Cl
EC50 (cells [1]): > 350 µM (not active) | EC50 (cells [2]): > 350 µM (not active)

COc1ccc(C2CC(=O)c3sc(N)nc3C2)cc1 (centres undefined)
IC50 (Leucine aminopeptidase): 30.1 µM (active)

CC(OC(=O)Cn1c(C(F)(F)F)nc2ccccc21)C(N)=O (centres undefined)
AC50 (Cytochrome P450 1A2): 25.1 µM (inconclusive) | AC50 (Cytochrome P450 2C9): 631 nM (inconclusive) | AC50 (Cytochrome P450 2C19; read-out: AC50): 28.2 µM (inconclusive)

CN(CC(=O)Nc1ccc(Cl)c(C(F)(F)F)c1)C(=O)CCCNC(=O)c1ccc(Cl)cc1
CC50 [3]: 2.49 µM (active)

O=C(O)c1ccccc1Nc1ccc([N+](=O)[O-])cc1C(=O)O
EC50 (cells [1]): > 350 µM (not active) | EC50 (cells [2]): > 350 µM (not active)

CC(C)(C)c1nc2scc(-c3cccs3)c2c(=O)o1
IC50 (Fatty acid synthase): 3.42 µM (active)

CCOc1ccc(-c2nc3n(c(=O)c2C#N)CCCS3)cc1
EC50 (Streptococcus): 148 µM (active) | EC50 [4]: > 112 µM (not active) | EC50 (Streptokinase A): > 150 µM (not active) | EC50 [5]: > 112 µM (not active) | EC50 [6]: 11.9 µM (active)

S=C(c1ccc(-c2cc(Cl)ccc2Cl)o1)N1CCCCC1
CC50 [3]: > 50 µM (active)

COC(=O)c1ccc(C2C(C(=O)c3ccc4c(c3)CC(C)O4)=C(O)C(=O)N2Cc2ccncc2)cc1 (centres undefined)
EC50 [4]: > 112 µM (not active) | EC50 [5]: > 112 µM (not active)

Cc1ccc(NC(=O)c2nnn(-c3ccc4c(c3)OCCO4)c2N)cc1
CC50 [3]: > 50 µM (active)

CCCNC(=O)c1cc2nc(-c3ccccc3)cc(C(F)(F)F)n2n1
EC50 (cells [1]): > 350 µM (not active) | EC50 (cells [2]): > 350 µM (not active)

Cc1ccc(NC(=O)CNc2cc(S(=O)(=O)N3CCOCC3)ccc2NCC2CCCO2)cc1F (centres undefined)
EC50 [4]: > 112 µM (not active) | EC50 [5]: > 112 µM (not active)

CC(C)CN(CCNC(=O)c1cn(C)c2ccc(S(=O)(=O)N3CCCC3)cc2c1=O)CC(C)C
EC50 (cells [1]): > 350 µM (not active) | EC50 (cells [2]): > 350 µM (not active)

CCC(c1nnnn1Cc1ccccc1)N(Cc1ccco1)Cc1cc2cc(OC)ccc2nc1O (centres undefined)
EC50 [4]: > 112 µM (not active) | EC50 [5]: > 112 µM (not active)

COc1ccc(CCn2ccc(O)c(Cc3ccc(Cl)cc3)c2=O)cc1OC
CC50 [3]: 20 µM (active)

COc1ccc(-c2csc(NC(=O)c3cc(C)oc3C)n2)cc1OC
CC50 [3]: 26.6 µM (active)

NC(=O)c1nsc(C(=O)N(CC(=O)NC2CCCC2)c2cnc3ccccc3c2)c1N
EC50 [4]: > 112 µM (not active) | EC50 [5]: 17.1 µM (active)

Cc1ccc(NC(=O)NC2=NN(c3ccccc3)C(=O)/C2=C2/CCCN2C)cc1
EC50 [7]: 18.1 µM (active) | EC50 (H4): 14.4 µM (active) | EC50 [8]: 32.5 µM (active)

Cc1ccccc1-c1cc(C(=O)n2cccn2)c2cc(Cl)ccc2n1
AC50 (Cytochrome P450 1A2): 17.8 µM (inconclusive) | AC50 (Cytochrome P450 2C19; read-out: AC50): 7.08 µM (inconclusive)

Cc1cc(NS(=O)(=O)c2ccc(NC(=O)Nc3ccc4c(c3)OCO4)cc2)no1
IC50 (Leucine aminopeptidase): 13.3 µM (active)

OC(COc1ccc2ccccc2c1Cl)CN1CCOCC1 (centres undefined)
EC50 [7]: 6.79 µM (active) | EC50 (H4): 9.81 µM (active) | EC50 [8]: 4.79 µM (active)

Cn1ccnc1Sc1nc2ccccc2nc1NS(=O)(=O)c1ccccc1
IC50 (Leucine aminopeptidase): 29.2 µM (active)

COc1ccc(NC(=O)CNC(=O)c2ccc([N+](=O)[O-])cc2)cc1
EC50 [4]: > 112 µM (not active) | EC50 [5]: 15.4 µM (active)

Cc1ccc(NC(=O)c2cc(S(=O)(=O)N3CCOCC3)cn2C)cc1F
EC50 [4]: > 112 µM (not active) | EC50 [5]: > 112 µM (not active)

CCC(Sc1nc(C)cc(O)n1)C(=O)Nc1sc2c(c1C#N)CCCC2 (centres undefined)
EC50 (cells [1]): > 350 µM (not active) | EC50 (cells [2]): > 350 µM (not active)

CCCCC[C@H](CC(=O)NO)C(=O)N[C@@H](C(=O)N1CCC[C@H]1CO)C(C)C
AC50 (Cytochrome P450 3A4): 5.01 µM (inconclusive) | AC50 (Cytochrome P450 2C19): inconclusive

CCOC(=O)c1sc(NC(=O)CSc2nnc[nH]2)c(C#N)c1C
IC50 (Leucine aminopeptidase): 73 µM (active)

COC(=O)C1=C(c2ccc3ccccc3c2)C[C@@H]2CC[C@H]1N2C(=O)NCC1CC1
AC50 [9]: 6.86 µM (active) | AC50 [10]: 30.6 µM (active)

CCOc1ccc2c(C)c(Cl)c(=O)oc2c1
EC50 (cells [1]): > 350 µM (not active) | EC50 (cells [2]): > 350 µM (not active)

Cc1ccc2c(c1)C(O)(CC(=O)/C=C/C=C/c1ccccc1)C(=O)N2 (centres undefined)
EC50 [7]: 11.8 µM (active) | EC50 (H4): > 120 µM (not active) | EC50 [8]: 17 µM (active)

C[C@@H]1CCCCO[C@@H](CN(C)C(=O)C2CCCCC2)[C@H](C)CN([C@@H](C)CO)C(=O)c2cc(NS(=O)(=O)c3ccc(Cl)cc3)ccc2O1
AC50 (Paired box protein Pax-8): 9.05 µM (active)

C[C@@H]1CN([C@@H](C)CO)C(=O)Cc2cc(NC(=O)Nc3ccc(C(F)(F)F)cc3)ccc2O[C@H]1CN(C)S(=O)(=O)c1ccc(F)cc1
AC50 (Paired box protein Pax-8): 9.39 µM (active)

CCN1C[C@]2(C)CC[C@H](OC)[C@@]34[C@@H]2[C@H](OC(C)=O)C2(OCO[C@@]25C[C@@H](OC)[C@H]2C[C@@]3(O)[C@H]5[C@@H]2OC)[C@H]14
AC50 (Cytochrome P450 3A4): 15.8 µM (inconclusive) | AC50 (Cytochrome P450 2C19): inconclusive

Cc1cc(O)nc(N/N=C/c2ccccn2)n1
AC50 [11]: 2.89 µM (active) | AC50 (INS1): 1.37 µM (active) | EC50 (cells [1]): 33.1 µM (active) | EC50 (cells [2]): 40.4 µM (active)

O=C(O)c1cc(N/N=C/c2ccc(OCc3ccccc3)cc2)ccc1Cl
IC50 (Leucine aminopeptidase): 20 µM (active)

CC1=NNC(=O)C1CC(=O)N/N=C(\C)c1ccco1 (centres undefined)
IC50 (Leucine aminopeptidase): 12.3 µM (active)

Cc1ccc(C)n1-c1ccc(S(N)(=O)=O)cc1
IC50 [12]: > 100 µM (not active)

O=C(NCCCO)c1cc(-c2cc(F)c(Cl)cc2Cl)n[nH]1
IC50 [12]: > 10 µM (inconclusive)
